Source: PubChem BioAssay AID1259407 (Chemical Carcinogenesis Research Information System (CCRIS), 2018)
The source made the active and inactive calls. No rule for the calls is given here.

Test system: CCRIS mutagenicity, Ames/micronucleus/aberration tests
Assay: CCRIS mutagenicity studies

SMILES: Nc1ccccc1
- mutagenic call (End Point: IN VITRO CHROMOSOMAL ABERRATIONS, Test System: CHINESE HAMSTER OVARY CELLS, Metabolic Activation: NONE): inactive; negative
- mutagenic call (End Point: IN VITRO CHROMOSOMAL ABERRATIONS, Test System: CHINESE HAMSTER OVARY CELLS, Metabolic Activation: RAT, LIVER, S-9, AROCLOR 1254): active; positive
- mutagenic call (End Point: IN VITRO MICRONUCLEUS, Test System: CHL/IU CELLS, Metabolic Activation: RAT, LIVER, S-9, PHENOBARBITAL AND 5,6-BENZOFLAVONE): active; positive
- mutagenic call (End Point: IN VIVO MICRONUCLEUS, Test System: BONE MARROW, Species: MOUSE, Strain/Sex: B6C3F1/MALE, Route: GAVAGE): active; positive
- mutagenic call (End Point: In vivo chromosomal aberrations, Test System: Bone marrow erythrocytes, Species: Rat, Strain/Sex: PVG/Male, Route: Oral): active; positive (structural changes) at 500 mg/kg (p<0.01)
- mutagenic call (End Point: In vivo micronucleus, Test System: Bone marrow erythrocytes, Species: Mouse, Strain/Sex: CRH/Male, Route: Intraperitoneal): active; positive (p<0.05)
- mutagenic call (Test System: AMES SALMONELLA TYPHIMURIUM, Strain/Indicator: TA97, Metabolic Activation: NONE, Method: STANDARD PLATE): inactive; negative
- mutagenic call (Test System: AMES SALMONELLA TYPHIMURIUM, Strain/Indicator: TA97, Metabolic Activation: RAT, LIVER, S-9, AROCLOR 1254, Method: STANDARD PLATE): inactive; negative
- mutagenic call (Test System: AMES SALMONELLA TYPHIMURIUM, Strain/Indicator: TA98(NR), Metabolic Activation: NONE, Method: PREINCUBATION): inactive; negative
- mutagenic call (Test System: AMES SALMONELLA TYPHIMURIUM, Strain/Indicator: TA98(NR), Metabolic Activation: RAT, LIVER, S-9, AROCLOR 1254, Method: PREINCUBATION): inactive; negative
- mutagenic call (Test System: AMES SALMONELLA TYPHIMURIUM, Strain/Indicator: TA98, Metabolic Activation: HAMSTER, LIVER, S-9, AROCLOR 1254, Method: STANDARD PLATE): inactive; negative
- mutagenic call (Test System: AMES SALMONELLA TYPHIMURIUM, Strain/Indicator: TA98, Metabolic Activation: HAMSTER, LIVER, S-9, Method: STANDARD PLATE): inactive; negative
- mutagenic call (Test System: AMES SALMONELLA TYPHIMURIUM, Strain/Indicator: TA98, Metabolic Activation: MOUSE, LIVER, S-9, AROCLOR 1254, Method: STANDARD PLATE): inactive; negative
- mutagenic call (Test System: AMES SALMONELLA TYPHIMURIUM, Strain/Indicator: TA98, Metabolic Activation: MOUSE, LIVER, S-9, Method: STANDARD PLATE): inactive; negative
- mutagenic call (Test System: AMES SALMONELLA TYPHIMURIUM, Strain/Indicator: TA98, Metabolic Activation: NONE, Method: STANDARD PLATE): inactive; negative
- mutagenic call (Test System: AMES SALMONELLA TYPHIMURIUM, Strain/Indicator: TA98, Metabolic Activation: PEA APICAL BUD S-9, Method: PREINCUBATION): inactive; negative
- mutagenic call (Test System: AMES SALMONELLA TYPHIMURIUM, Strain/Indicator: TA98, Metabolic Activation: PEA APICAL BUD S-9, Method: STANDARD PLATE): inactive; negative
- mutagenic call (Test System: AMES SALMONELLA TYPHIMURIUM, Strain/Indicator: TA98, Metabolic Activation: RAT, LIVER, S-9, AROCLOR 1254, Method: STANDARD PLATE): inactive; negative
- mutagenic call (Test System: AMES SALMONELLA TYPHIMURIUM, Strain/Indicator: TA98, Metabolic Activation: RAT, LIVER, S-9, ETHANOL, Method: PREINCUBATION): inactive; negative
- mutagenic call (Test System: AMES SALMONELLA TYPHIMURIUM, Strain/Indicator: TA98, Metabolic Activation: RAT, LIVER, S-9, PHENOBARBITAL, Method: PREINCUBATION): inactive; negative
- mutagenic call (Test System: AMES SALMONELLA TYPHIMURIUM, Strain/Indicator: TA98, Metabolic Activation: RAT, LIVER, S-9, PYRAZOLE, Method: PREINCUBATION): inactive; negative
- mutagenic call (Test System: AMES SALMONELLA TYPHIMURIUM, Strain/Indicator: TA98, Metabolic Activation: RAT, LIVER, S-9, Method: STANDARD PLATE): inactive; negative
- mutagenic call (Test System: AMES SALMONELLA TYPHIMURIUM, Strain/Indicator: TA100(NR), Metabolic Activation: NONE, Method: PREINCUBATION): inactive; negative
- mutagenic call (Test System: AMES SALMONELLA TYPHIMURIUM, Strain/Indicator: TA100(NR), Metabolic Activation: RAT, LIVER, S-9, AROCLOR 1254, Method: PREINCUBATION): inactive; negative
- mutagenic call (Test System: AMES SALMONELLA TYPHIMURIUM, Strain/Indicator: TA100, Metabolic Activation: HAMSTER, LIVER, S-9, AROCLOR 1254, Method: STANDARD PLATE): inactive; negative
- mutagenic call (Test System: AMES SALMONELLA TYPHIMURIUM, Strain/Indicator: TA100, Metabolic Activation: HAMSTER, LIVER, S-9, Method: STANDARD PLATE): inactive; negative
- mutagenic call (Test System: AMES SALMONELLA TYPHIMURIUM, Strain/Indicator: TA100, Metabolic Activation: MOUSE, LIVER, S-9, AROCLOR 1254, Method: STANDARD PLATE): inactive; negative
- mutagenic call (Test System: AMES SALMONELLA TYPHIMURIUM, Strain/Indicator: TA100, Metabolic Activation: MOUSE, LIVER, S-9, Method: STANDARD PLATE): inactive; negative
- mutagenic call (Test System: AMES SALMONELLA TYPHIMURIUM, Strain/Indicator: TA100, Metabolic Activation: NONE, Method: STANDARD PLATE): inactive; negative
- mutagenic call (Test System: AMES SALMONELLA TYPHIMURIUM, Strain/Indicator: TA100, Metabolic Activation: PEA APICAL BUD S-9, Method: PREINCUBATION): inactive; negative
- mutagenic call (Test System: AMES SALMONELLA TYPHIMURIUM, Strain/Indicator: TA100, Metabolic Activation: PEA APICAL BUD S-9, Method: STANDARD PLATE): inactive; negative
- mutagenic call (Test System: AMES SALMONELLA TYPHIMURIUM, Strain/Indicator: TA100, Metabolic Activation: RAT, LIVER, S-9, AROCLOR 1254, Method: PREINCUBATION): inactive; negative
- mutagenic call (Test System: AMES SALMONELLA TYPHIMURIUM, Strain/Indicator: TA100, Metabolic Activation: RAT, LIVER, S-9, AROCLOR 1254, Method: STANDARD PLATE): inactive; negative
- mutagenic call (Test System: AMES SALMONELLA TYPHIMURIUM, Strain/Indicator: TA100, Metabolic Activation: RAT, LIVER, S-9, ETHANOL, Method: PREINCUBATION): inactive; negative
- mutagenic call (Test System: AMES SALMONELLA TYPHIMURIUM, Strain/Indicator: TA100, Metabolic Activation: RAT, LIVER, S-9, PHENOBARBITAL, Method: PREINCUBATION): inactive; negative
- mutagenic call (Test System: AMES SALMONELLA TYPHIMURIUM, Strain/Indicator: TA100, Metabolic Activation: RAT, LIVER, S-9, PYRAZOLE, Method: PREINCUBATION): inactive; negative
- mutagenic call (Test System: AMES SALMONELLA TYPHIMURIUM, Strain/Indicator: TA100, Metabolic Activation: RAT, LIVER, S-9, Method: STANDARD PLATE): inactive; negative
- mutagenic call (Test System: AMES SALMONELLA TYPHIMURIUM, Strain/Indicator: TA102, Metabolic Activation: RAT, LIVER, S-9, AROCLOR 1254, Method: STANDARD PLATE): inactive; negative
- mutagenic call (Test System: AMES SALMONELLA TYPHIMURIUM, Strain/Indicator: TA102, Metabolic Activation: RAT, LIVER, S-9, PYRAZOLE, Method: PREINCUBATION): inactive; negative
- mutagenic call (Test System: AMES SALMONELLA TYPHIMURIUM, Strain/Indicator: TA1535, Metabolic Activation: HAMSTER, LIVER, S-9, AROCLOR 1254, Method: STANDARD PLATE): inactive; negative
- mutagenic call (Test System: AMES SALMONELLA TYPHIMURIUM, Strain/Indicator: TA1535, Metabolic Activation: HAMSTER, LIVER, S-9, Method: STANDARD PLATE): inactive; negative
- mutagenic call (Test System: AMES SALMONELLA TYPHIMURIUM, Strain/Indicator: TA1535, Metabolic Activation: MOUSE, LIVER, S-9, AROCLOR 1254, Method: STANDARD PLATE): inactive; negative
- mutagenic call (Test System: AMES SALMONELLA TYPHIMURIUM, Strain/Indicator: TA1535, Metabolic Activation: MOUSE, LIVER, S-9, Method: STANDARD PLATE): inactive; negative
- mutagenic call (Test System: AMES SALMONELLA TYPHIMURIUM, Strain/Indicator: TA1535, Metabolic Activation: NONE, Method: STANDARD PLATE): inactive; negative
- mutagenic call (Test System: AMES SALMONELLA TYPHIMURIUM, Strain/Indicator: TA1535, Metabolic Activation: RAT, LIVER, S-9, AROCLOR 1254, Method: STANDARD PLATE): inactive; negative
- mutagenic call (Test System: AMES SALMONELLA TYPHIMURIUM, Strain/Indicator: TA1535, Metabolic Activation: RAT, LIVER, S-9, PYRAZOLE, Method: PREINCUBATION): inactive; negative
